According to ChEMBL document CHEMBL4043290, “Structure-based Design of Pyridone-Aminal eFT508 Targeting Dysregulated Translation by Selective Mitogen-activated Protein Kinase Interacting Kinases 1 and 2 (MNK1/2) Inhibition” (J Med Chem, 2018):
Blank lines part the entries; values can stand above or below the compound they belong to.

How the values were obtained:
[1] = molecular target: MAP kinase-interacting serine/threonine-protein kinase 1 (Homo sapiens, UniProt Q9BUB5)
[2] = Oral bioavailability in Balb/c mouse at 10 mg/kg by LC-ESI-TOF/MS or LC-ESI-MS/MS method; assay type: ADME, organism-based; conditions: in vivo
[3] = Metabolic stability in human liver microsomes assessed as parent compound remaining at 1 uM after 30 mins by LC-ESI-TOF/MS method; assay type: ADME, microsome; conditions: read-out: Stability
[4] = Oral bioavailability in Beagle dog at 3 mg/kg by LC-ESI-TOF/MS or LC-ESI-MS/MS method; assay type: ADME, organism-based, Canis lupus familiaris; conditions: in vivo
[5] = Oral bioavailability in Sprague-Dawley rat at 10 mg/kg by LC-ESI-TOF/MS or LC-ESI-MS/MS method; assay type: ADME, organism-based; conditions: in vivo
[6] = Oral bioavailability in cynomolgus monkey at 3 mg/kg by LC-ESI-TOF/MS or LC-ESI-MS/MS method; assay type: ADME, organism-based, Macaca fascicularis; conditions: in vivo
[7] = Metabolic stability in rat liver microsomes assessed as parent compound remaining at 1 uM after 30 mins by LC-ESI-TOF/MS method; assay type: ADME, microsome; conditions: read-out: Stability
[8] = molecular target: T1, Serine/threonine-protein kinase 17A (Homo sapiens) (UniProt Q9UEE5); assay: Inhibition of DRAK1 (unknown origin) at 1 uM relative to control
T1 sequence (whole entry): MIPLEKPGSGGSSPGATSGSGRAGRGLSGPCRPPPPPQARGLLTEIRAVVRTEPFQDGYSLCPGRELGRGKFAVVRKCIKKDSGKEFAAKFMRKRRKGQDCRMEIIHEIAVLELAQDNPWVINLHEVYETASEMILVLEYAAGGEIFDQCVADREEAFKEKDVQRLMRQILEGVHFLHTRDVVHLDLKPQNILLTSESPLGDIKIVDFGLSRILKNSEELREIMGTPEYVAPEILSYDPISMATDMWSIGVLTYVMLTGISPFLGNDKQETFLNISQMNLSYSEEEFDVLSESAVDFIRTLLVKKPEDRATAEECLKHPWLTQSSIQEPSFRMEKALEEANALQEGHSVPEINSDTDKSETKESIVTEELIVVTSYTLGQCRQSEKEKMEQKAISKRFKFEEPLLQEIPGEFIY

[9] = Metabolic stability in mouse liver microsomes assessed as parent compound remaining at 1 uM after 30 mins by LC-ESI-TOF/MS method; assay type: ADME, microsome; conditions: read-out: Stability
[10] = molecular target: MAP kinase-interacting serine/threonine-protein kinase 1/2 (Homo sapiens, UniProt Q9HBH9+Q9BUB5)
[11] = molecular target: MAP kinase-interacting serine/threonine-protein kinase 2 (Homo sapiens, UniProt Q9HBH9)
Sequence of MAP kinase-interacting serine/threonine-protein kinase 2 (Q9HBH9 whole entry): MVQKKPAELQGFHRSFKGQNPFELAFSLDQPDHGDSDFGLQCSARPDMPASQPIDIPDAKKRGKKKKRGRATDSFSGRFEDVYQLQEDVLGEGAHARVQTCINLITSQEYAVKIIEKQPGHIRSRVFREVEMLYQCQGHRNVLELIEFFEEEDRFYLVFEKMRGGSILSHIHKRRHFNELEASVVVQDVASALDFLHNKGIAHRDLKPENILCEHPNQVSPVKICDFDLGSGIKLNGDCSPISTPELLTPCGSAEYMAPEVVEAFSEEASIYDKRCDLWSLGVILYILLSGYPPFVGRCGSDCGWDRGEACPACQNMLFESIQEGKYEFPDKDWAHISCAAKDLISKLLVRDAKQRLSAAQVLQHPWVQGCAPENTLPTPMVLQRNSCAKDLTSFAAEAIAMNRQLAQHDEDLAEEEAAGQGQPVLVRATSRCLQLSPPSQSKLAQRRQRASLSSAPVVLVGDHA

[12] = molecular target: Tyrosine-protein kinase Yes (Homo sapiens) (UniProt P07947); assay: Inhibition of YES1 (unknown origin) at 1 uM relative to control
[13] = molecular target: Dual specificity tyrosine-phosphorylation-regulated kinase 1A (Homo sapiens) (UniProt Q13627); assay: Inhibition of DYRK1A (unknown origin) at 1 uM relative to control
[14] = molecular target: Platelet-derived growth factor receptor beta (Homo sapiens) (UniProt P09619); assay: Inhibition of PDGFRB (unknown origin) at 1 uM relative to control
SW-620 = assay: Antiproliferative activity against human SW620 cells after 72 hrs by CellTiter-Glo assay; assay type: functional, cell-based; conditions: SW-620, 72 h
[15] = molecular target: Proto-oncogene tyrosine-protein kinase receptor Ret (Homo sapiens) (UniProt P07949); assay: Inhibition of RET (unknown origin) at 1 uM relative to control
[16] = molecular target: Tyrosine-protein kinase ABL1 (Homo sapiens) (UniProt P00519); assay: Inhibition of Abl1 (unknown origin) at 1 uM relative to control
Sequence of Tyrosine-protein kinase ABL1 (Homo sapiens) (P00519 whole entry): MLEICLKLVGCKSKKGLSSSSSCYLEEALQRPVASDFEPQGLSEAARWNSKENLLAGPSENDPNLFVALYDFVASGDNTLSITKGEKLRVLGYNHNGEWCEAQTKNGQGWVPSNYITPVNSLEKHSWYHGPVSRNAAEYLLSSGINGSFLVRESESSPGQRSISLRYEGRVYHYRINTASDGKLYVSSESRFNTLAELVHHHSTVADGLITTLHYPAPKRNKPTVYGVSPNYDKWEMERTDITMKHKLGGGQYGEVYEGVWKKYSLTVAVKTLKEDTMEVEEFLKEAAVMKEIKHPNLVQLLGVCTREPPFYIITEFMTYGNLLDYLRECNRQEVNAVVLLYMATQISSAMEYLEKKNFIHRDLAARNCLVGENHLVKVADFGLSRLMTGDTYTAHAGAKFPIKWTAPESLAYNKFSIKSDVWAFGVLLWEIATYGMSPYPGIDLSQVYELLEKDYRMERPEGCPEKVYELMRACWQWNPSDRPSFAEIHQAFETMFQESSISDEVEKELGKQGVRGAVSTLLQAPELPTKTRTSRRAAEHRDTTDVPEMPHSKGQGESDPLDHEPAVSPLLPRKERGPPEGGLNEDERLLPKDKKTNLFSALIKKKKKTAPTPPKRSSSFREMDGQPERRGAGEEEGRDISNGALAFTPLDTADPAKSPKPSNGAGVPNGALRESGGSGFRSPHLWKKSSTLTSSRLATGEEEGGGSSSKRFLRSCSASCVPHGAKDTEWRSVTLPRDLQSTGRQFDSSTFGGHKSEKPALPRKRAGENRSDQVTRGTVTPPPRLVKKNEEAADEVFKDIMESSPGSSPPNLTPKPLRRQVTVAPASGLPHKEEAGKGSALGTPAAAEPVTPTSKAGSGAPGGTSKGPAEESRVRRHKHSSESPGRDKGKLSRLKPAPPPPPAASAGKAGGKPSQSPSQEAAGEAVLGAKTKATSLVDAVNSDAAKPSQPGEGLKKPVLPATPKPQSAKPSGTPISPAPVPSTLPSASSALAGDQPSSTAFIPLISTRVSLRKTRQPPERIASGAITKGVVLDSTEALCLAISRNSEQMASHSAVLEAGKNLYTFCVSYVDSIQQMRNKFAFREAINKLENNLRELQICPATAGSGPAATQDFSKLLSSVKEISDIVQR

[17] = molecular target: Vascular endothelial growth factor receptor 2 (Homo sapiens) (UniProt P35968); assay: Inhibition of KDR (unknown origin) at 1 uM relative to control
Sequence of Vascular endothelial growth factor receptor 2 (Homo sapiens) (P35968 whole entry): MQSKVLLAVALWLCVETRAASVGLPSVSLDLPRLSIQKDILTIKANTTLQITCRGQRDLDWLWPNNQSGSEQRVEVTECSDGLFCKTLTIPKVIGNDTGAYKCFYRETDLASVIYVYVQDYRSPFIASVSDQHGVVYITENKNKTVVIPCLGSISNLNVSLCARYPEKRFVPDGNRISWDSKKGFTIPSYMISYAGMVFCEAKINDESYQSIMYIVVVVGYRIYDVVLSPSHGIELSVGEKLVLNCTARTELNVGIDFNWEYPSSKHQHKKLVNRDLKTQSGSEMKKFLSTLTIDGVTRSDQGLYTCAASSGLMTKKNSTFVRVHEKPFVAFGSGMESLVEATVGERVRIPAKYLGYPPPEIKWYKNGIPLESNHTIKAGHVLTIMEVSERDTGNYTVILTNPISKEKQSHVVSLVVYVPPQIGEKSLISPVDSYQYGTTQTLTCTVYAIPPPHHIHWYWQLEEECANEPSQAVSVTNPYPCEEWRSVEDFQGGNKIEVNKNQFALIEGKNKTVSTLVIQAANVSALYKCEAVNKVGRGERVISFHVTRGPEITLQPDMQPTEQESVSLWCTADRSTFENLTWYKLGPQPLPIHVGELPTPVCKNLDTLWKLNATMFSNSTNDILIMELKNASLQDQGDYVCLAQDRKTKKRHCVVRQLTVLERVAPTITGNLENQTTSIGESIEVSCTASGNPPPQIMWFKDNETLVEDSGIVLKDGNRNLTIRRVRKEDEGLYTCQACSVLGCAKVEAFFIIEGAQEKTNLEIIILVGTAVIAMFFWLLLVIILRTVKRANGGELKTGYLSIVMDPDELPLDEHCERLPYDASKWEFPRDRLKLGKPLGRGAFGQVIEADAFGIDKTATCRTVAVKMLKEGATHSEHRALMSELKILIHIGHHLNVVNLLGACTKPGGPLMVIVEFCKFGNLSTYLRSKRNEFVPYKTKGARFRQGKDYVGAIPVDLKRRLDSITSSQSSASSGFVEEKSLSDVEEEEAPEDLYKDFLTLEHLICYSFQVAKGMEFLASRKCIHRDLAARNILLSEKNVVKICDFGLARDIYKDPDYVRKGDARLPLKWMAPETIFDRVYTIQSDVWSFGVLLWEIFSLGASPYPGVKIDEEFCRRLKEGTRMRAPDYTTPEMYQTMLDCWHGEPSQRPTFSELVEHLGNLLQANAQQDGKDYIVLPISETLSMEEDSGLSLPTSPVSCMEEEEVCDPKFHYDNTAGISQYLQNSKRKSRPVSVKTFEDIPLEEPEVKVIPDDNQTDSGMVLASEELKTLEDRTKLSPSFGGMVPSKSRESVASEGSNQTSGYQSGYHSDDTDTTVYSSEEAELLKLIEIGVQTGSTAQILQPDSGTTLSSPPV

[18] = molecular target: Receptor-type tyrosine-protein kinase FLT3 (Homo sapiens) (UniProt P36888); assay: Inhibition of FLT3 (unknown origin) at 1 uM relative to control
Sequence of Receptor-type tyrosine-protein kinase FLT3 (Homo sapiens) (P36888 whole entry): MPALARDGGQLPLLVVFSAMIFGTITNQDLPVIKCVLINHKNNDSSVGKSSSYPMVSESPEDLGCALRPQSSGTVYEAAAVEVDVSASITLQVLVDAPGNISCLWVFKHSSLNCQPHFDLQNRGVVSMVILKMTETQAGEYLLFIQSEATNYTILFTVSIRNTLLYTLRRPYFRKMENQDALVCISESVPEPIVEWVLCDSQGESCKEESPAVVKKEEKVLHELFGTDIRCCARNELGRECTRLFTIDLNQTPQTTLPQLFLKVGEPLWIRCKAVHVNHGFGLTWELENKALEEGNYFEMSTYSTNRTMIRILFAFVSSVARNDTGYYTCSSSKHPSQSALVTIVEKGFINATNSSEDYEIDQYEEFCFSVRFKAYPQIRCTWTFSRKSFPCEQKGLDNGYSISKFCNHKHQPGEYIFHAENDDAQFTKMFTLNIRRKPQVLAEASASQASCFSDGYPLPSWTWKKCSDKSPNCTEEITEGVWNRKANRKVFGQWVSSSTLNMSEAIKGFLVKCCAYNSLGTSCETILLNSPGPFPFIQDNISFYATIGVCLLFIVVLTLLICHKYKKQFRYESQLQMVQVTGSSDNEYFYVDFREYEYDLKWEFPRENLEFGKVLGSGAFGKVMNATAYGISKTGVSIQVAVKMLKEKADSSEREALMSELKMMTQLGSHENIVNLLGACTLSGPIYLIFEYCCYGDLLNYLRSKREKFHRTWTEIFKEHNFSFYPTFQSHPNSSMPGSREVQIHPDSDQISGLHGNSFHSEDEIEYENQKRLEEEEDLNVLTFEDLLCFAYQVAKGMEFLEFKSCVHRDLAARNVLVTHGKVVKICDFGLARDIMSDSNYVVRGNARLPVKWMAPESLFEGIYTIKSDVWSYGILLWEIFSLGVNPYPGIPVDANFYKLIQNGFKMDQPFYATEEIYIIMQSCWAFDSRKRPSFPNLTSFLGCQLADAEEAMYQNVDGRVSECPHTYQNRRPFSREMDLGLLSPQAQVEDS

[19] = molecular target: Aurora kinase A (Homo sapiens) (UniProt O14965); assay: Inhibition of aurora A (unknown origin) at 1 uM relative to control
HCT-116 = assay: Antiproliferative activity against human HCT116 cells after 72 hrs by CellTiter-Glo assay; assay type: functional, cell-based; conditions: HCT-116, 72 h
[20] = molecular target: Platelet-derived growth factor receptor alpha (Homo sapiens) (UniProt P16234); assay: Inhibition of PDGFRA (unknown origin) at 1 uM relative to control
[21] = molecular target: Tyrosine-protein kinase Lck (Homo sapiens) (UniProt P06239); assay: Inhibition of LCK (unknown origin) at 1 uM relative to control
PC-3 = assay: Antiproliferative activity against human PC3 cells after 72 hrs by CellTiter-Glo assay; assay type: functional, cell-based; conditions: PC-3, 72 h
physchem = conditions: octanol/water
in vitro = conditions: human, Caco-2
[22] = molecular target: Dual specificity tyrosine-phosphorylation-regulated kinase 2 (Homo sapiens) (UniProt Q92630); assay: Inhibition of DYRK2 (unknown origin) at 1 uM relative to control
[23] = molecular target: T2, Serine/threonine-protein kinase BRSK1 (Homo sapiens) (UniProt Q8TDC3); assay: Inhibition of BRSK1 (unknown origin) at 1 uM relative to control
T2 sequence (whole entry): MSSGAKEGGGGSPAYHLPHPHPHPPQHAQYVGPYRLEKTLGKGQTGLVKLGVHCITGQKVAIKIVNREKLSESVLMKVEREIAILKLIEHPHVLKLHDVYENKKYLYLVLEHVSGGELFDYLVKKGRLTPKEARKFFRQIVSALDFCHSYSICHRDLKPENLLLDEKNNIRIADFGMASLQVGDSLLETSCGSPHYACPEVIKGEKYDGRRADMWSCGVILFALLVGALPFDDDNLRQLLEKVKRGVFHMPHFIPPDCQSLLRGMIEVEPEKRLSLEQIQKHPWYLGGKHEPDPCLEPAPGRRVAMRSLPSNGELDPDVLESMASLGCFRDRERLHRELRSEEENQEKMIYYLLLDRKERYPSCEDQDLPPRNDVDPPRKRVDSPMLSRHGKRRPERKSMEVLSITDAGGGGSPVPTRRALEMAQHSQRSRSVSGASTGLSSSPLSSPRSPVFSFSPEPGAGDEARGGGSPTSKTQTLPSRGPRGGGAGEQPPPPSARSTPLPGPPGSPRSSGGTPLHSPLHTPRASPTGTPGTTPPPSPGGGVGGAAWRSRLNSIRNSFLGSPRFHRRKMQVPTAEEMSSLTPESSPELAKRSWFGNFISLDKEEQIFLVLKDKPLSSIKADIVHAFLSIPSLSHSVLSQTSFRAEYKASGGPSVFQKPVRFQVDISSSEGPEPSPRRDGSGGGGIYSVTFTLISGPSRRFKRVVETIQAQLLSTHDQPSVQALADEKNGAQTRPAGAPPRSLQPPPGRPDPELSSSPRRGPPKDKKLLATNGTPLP

[24] = molecular target: Serine/threonine-protein kinase pim-1 (Homo sapiens) (UniProt P11309); assay: Inhibition of PIM1 (unknown origin) at 1 uM relative to control
[25] = molecular target: Rho-associated protein kinase 1 (Homo sapiens) (UniProt Q13464); assay: Inhibition of ROCK1 (unknown origin) at 1 uM relative to control
[26] = molecular target: Ribosomal protein S6 kinase alpha-1 (Homo sapiens) (UniProt Q15418); assay: Inhibition of RSK1 (unknown origin) at 1 uM relative to control
[27] = molecular target: Dual specificity mitogen-activated protein kinase kinase 2 (Homo sapiens) (UniProt P36507); assay: Inhibition of MEK2 (unknown origin) at 1 uM relative to control
[28] = molecular target: High affinity nerve growth factor receptor (Homo sapiens) (UniProt P04629); assay: Inhibition of TRKA (unknown origin) at 1 uM relative to control
[29] = molecular target: Cyclin-dependent kinase 2 (Homo sapiens) (UniProt P24941); assay: Inhibition of CDK2 (unknown origin) at 1 uM relative to control
[30] = molecular target: 5'-AMP-activated protein kinase catalytic subunit alpha-1 (Homo sapiens) (UniProt Q13131); assay: Inhibition of AMPKA1 (unknown origin) at 1 uM relative to control
[31] = molecular target: 5'-AMP-activated protein kinase subunit gamma-1 (Homo sapiens) (UniProt P54619); assay: Inhibition of AMPKG1 (unknown origin) at 1 uM relative to control
[32] = molecular target: Dual specificity protein kinase CLK1 (Homo sapiens) (UniProt P49759); assay: Inhibition of CLK1 (unknown origin) at 1 uM relative to control
Sequence of Dual specificity protein kinase CLK1 (Homo sapiens) (P49759 whole entry, looked up): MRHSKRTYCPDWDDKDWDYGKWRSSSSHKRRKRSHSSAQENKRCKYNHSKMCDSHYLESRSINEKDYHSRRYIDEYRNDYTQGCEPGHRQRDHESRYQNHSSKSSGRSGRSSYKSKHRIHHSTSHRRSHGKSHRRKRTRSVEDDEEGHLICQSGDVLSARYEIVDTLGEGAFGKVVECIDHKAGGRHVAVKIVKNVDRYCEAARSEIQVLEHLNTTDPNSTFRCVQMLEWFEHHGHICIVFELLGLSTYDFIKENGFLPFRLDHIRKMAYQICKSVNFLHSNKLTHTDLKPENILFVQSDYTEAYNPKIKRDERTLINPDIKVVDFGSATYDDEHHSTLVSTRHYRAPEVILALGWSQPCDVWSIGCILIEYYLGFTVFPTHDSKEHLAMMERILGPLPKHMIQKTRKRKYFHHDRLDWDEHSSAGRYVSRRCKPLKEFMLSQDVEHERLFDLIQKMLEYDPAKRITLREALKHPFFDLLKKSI

[33] = molecular target: Interleukin-1 receptor-associated kinase 1 (Homo sapiens) (UniProt P51617); assay: Inhibition of IRAK1 (unknown origin) at 1 uM relative to control
[34] = molecular target: Calcium/calmodulin-dependent protein kinase type II subunit alpha (Homo sapiens) (UniProt Q9UQM7); assay: Inhibition of CAMK2A (unknown origin) at 1 uM relative to control
[35] = molecular target: Serine/threonine-protein kinase B-raf (Homo sapiens) (UniProt P15056); assay: Inhibition of BRAF (unknown origin) at 1 uM relative to control
[36] = molecular target: 5'-AMP-activated protein kinase subunit beta-1 (Homo sapiens) (UniProt Q9Y478); assay: Inhibition of AMPKB1 (unknown origin) at 1 uM relative to control

Sequence of MAP kinase-interacting serine/threonine-protein kinase 1 (Q9BUB5 whole entry): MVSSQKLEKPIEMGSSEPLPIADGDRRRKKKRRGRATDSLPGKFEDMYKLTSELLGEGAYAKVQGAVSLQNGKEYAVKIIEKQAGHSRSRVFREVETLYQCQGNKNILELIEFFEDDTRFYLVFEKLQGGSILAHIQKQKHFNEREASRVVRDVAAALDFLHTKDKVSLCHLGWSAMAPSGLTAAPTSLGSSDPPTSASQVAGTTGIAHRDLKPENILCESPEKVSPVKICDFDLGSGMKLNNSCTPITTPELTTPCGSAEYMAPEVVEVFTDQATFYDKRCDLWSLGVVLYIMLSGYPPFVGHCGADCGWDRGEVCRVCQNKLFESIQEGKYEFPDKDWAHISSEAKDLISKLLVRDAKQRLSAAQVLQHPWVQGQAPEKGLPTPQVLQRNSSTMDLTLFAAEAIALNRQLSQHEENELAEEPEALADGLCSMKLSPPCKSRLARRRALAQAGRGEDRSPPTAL

IC50 [1]: 4700 nM
Structure (SMILES): Cc1n[nH]c(C)c1-c1ccc(C2CCCN2)cc1 (stereo not given)

IC50 [10]: 28000 nM
IC50 [11]: 45 nM
IC50 [1]: 28 nM
Structure (SMILES): CC1NC(=O)c2ccc(Nc3ccncn3)cc21 (stereo not given)

IC50 [10]: 0.084 nM
IC50 [11]: 0.36 nM
Structure (SMILES): Nc1ncnc(Nc2cc(Cl)c3n(c2=O)C2(CCCCC2)NC3=O)c1Cl

IC50 [10]: 430 nM
IC50 [11]: 5.7 nM
IC50 [1]: 1.9 nM
Structure (SMILES): O=C1NCc2cc(Nc3cc(NC(=O)C4CC4)ncn3)ccc21

IC50 [1]: 3800 nM
Structure (SMILES): c1ccc(-c2n[nH]c3ccc(-c4ccncc4)cc23)cc1

IC50 [1]: 6400 nM
Structure (SMILES): NC(=O)c1cccn2c(-c3cccnc3)cnc12

IC50 [1]: 3000 nM
Structure (SMILES): NC(=O)c1ccc(Nc2ccncn2)c(=O)[nH]1

bioavailability [2]: 79%
logP (physchem): 1.8
Papp A→B at 2 h, 5 µM (in vitro): 0.9 ×10⁻⁶ cm/s
remaining at 0.5 h, 1 µM [3]: 100%
bioavailability [4]: > 100%
bioavailability [5]: 50%
bioavailability [6]: 54%
remaining at 0.5 h, 1 µM [7]: 100%
inhibition [22]: 67%
inhibition [8]: 88%
inhibition [17]: 74%
remaining at 0.5 h, 1 µM [9]: 95%
inhibition [23]: 52%
Structure (SMILES): CC1(C)NC(=O)c2c(Cl)cc(Nc3cc(N)ncn3)c(=O)n21

More lines, now with the values behind:

Structure (SMILES): Cc1cc(Nc2cc(N)ncn2)c(=O)n2c1C(=O)NC21CCC(F)(F)CC1
bioavailability [2]: 85%
remaining at 0.5 h, 1 µM [3]: 97%
bioavailability [4]: > 100%
bioavailability [5]: 56%
bioavailability [6]: 58%
IC50 [1]: 1.4 nM
remaining at 0.5 h, 1 µM [7]: 100%
inhibition [8]: 68%
remaining at 0.5 h, 1 µM [9]: 99%

Structure (SMILES): c1cnn2c(-c3ccncc3)cnc2c1
IC50 [1]: 1800 nM

Structure (SMILES): NC(=O)c1ccc(Nc2ccncn2)cc1
IC50 [1]: 690 nM

Structure (SMILES): CC1(C)NC(=O)c2ccc(Nc3ccncn3)cc21
IC50 [10]: 4400 nM
IC50 [11]: 61 nM
IC50 [1]: 100 nM

Structure (SMILES): CC1(c2cccc(Cl)c2)NC(=O)c2c(Cl)cc(Nc3cc(NC(=O)C4CC4)ncn3)c(=O)n21 (stereo not given)
inhibition [12]: 10%
inhibition [13]: 10%
inhibition [14]: 10%
EC50 (SW-620): 2800 nM
inhibition [15]: 10%
inhibition [16]: 10%
inhibition [17]: 10%
inhibition [18]: 10%
inhibition [19]: 10%
EC50 (HCT-116): 2700 nM
inhibition [20]: 10%
inhibition [21]: 10%

Structure (SMILES): NC(=O)c1ccc(Nc2ncnc3[nH]cnc23)cc1
IC50 [1]: 60 nM

Structure (SMILES): CC1(C)NC(=O)c2ccc(Nc3cc(NC(=O)C4CC4)ncn3)c(=O)n21
EC50 (PC-3): > 30000 nM
EC50 (SW-620): > 30000 nM
inhibition [15]: 4%
inhibition [16]: 4%
inhibition [17]: 4%
inhibition [18]: 4%
EC50 (HCT-116): > 30000 nM

Structure (SMILES): O=C1NCc2cc(Nc3ncnc4[nH]cnc34)ccc21
IC50 [1]: 23 nM

Structure (SMILES): N[C@H]1C[C@H](Oc2ccc3ncc(-c4ccc5cnccc5c4)n3n2)C1
inhibition [24]: 17%
inhibition [25]: 17%
inhibition [26]: 17%
inhibition [13]: 17%
IC50 [10]: 120 nM
inhibition [27]: 17%
EC50 (PC-3): 590 nM
inhibition [28]: 17%
inhibition [14]: 17%
IC50 [11]: 7.8 nM
inhibition [29]: 17%
EC50 (SW-620): 310 nM
inhibition [30]: 17%
IC50 [1]: 1.5 nM
inhibition [31]: 17%
inhibition [32]: 17%
inhibition [33]: 17%
inhibition [34]: 17%
inhibition [17]: 17%
inhibition [18]: 17%
EC50 (HCT-116): 210 nM
inhibition [20]: 17%
inhibition [35]: 17%
inhibition [36]: 17%

Structure (SMILES): c1cc(-c2cc(C3CCNCC3)[nH]n2)ccn1
IC50 [1]: 5500 nM
